Assay results taken from patent publication US20130090280A1, “CLEANING COMPOSITIONS AND METHODS” (HONEYWELL INTERNATIONAL INC., priority 2011, published 2013).
Read-outs that look alike come from different tables or passages of the source.

Tests used:
[1] = selected physical properties of solvents
From the text: In the table Perc, is used as an abbreviation for perchloroethylene.

[2] = miscibility test, equal parts by weight of solvent and oils, visual observation; assay type: physicochemical
From the text: Applicants compared the solubility of various materials which may be considered as soils to be cleaned in 1233zd(E) in Table 3. […] In all cases, the solvent looked clear and the mixtures are reported as miscible below. This is an initial mode of testing to check how well the solvent performs in dissolving the soils.

[3] = chemical stability, reflux with metals and moisture, ion chromatography of aqueous wash; assay type: physicochemical
From the text: The chemical stability of the compound 1233zd(E) by itself and also in the presence of water, metals, flux is another important factor to be considered in the identification of a successful solvent. […] This test continued for 2 weeks.
Solvent was boiled with water alone or in presence of various metal coupons such as stainless steel 304, cold-rolled steel, galvanized steel, copper, and aluminum. The coupons were partially immersed in the solvent which allowed the state of the coupons at the interface of liquid and vapor to be viewed. […] After the test, coupons were observed visually for rusting or pitting and the remaining solvent in the flask was examined for breakdown products including chlorides and fluorides which are good indicators of breakdown of solvents.

[4] = 0.2% moisture added, reflux 100 hours, AL
[5] = 0.2% moisture added, reflux 100 hours, CRS
[6] = 0.2% moisture added, reflux 100 hours, CU
[7] = 0.2% moisture added, reflux 100 hours, GAL
[8] = 0.2% moisture added, reflux 100 hours, S.S 304
[9] = 0.2% moisture added, reflux 100 hours, no metal
[10] = no additional moisture, reflux, AL
[11] = no additional moisture, reflux, CRS
[12] = no additional moisture, reflux, CU
[13] = no additional moisture, reflux, GAL
[14] = no additional moisture, reflux, S.S 304
[15] = no additional moisture, reflux, no metal
[16] = no additional moisture, virgin/no reflux

FC(F)(F)/C=C/Cl [1233zd(E), trans-1-chloro-3,3,3-trifluoropropene]
Boiling Point [1]: 19.52 °C | Flash Point [1]: None | Kauri-Butanol value [1]: 25 | flammability [1]: completely non-flammable | Vapor Pressure ([1]; @20 C.): 15.23 psi | Heat of Vaporization ([1]; at bp): 193.9 kJ/kg | Soil Dissolution in solvent ([2]; Mineral Oil): Miscible | Soil Dissolution in solvent ([2]; Refrigerant oil): Miscible | Soil Dissolution in solvent ([2]; Silicone Lubricant): Miscible | Soil Dissolution in solvent ([2]; Solder Flux): Miscible | Acetate [3, 4]: 0.04 ppm | Br^− [3, 4]: <0.05 ppm | Cl^− [3, 4]: 0.08 ppm | F^− [3, 4]: 0.05 ppm | Formate [3, 4]: 0.10 ppm | NO3^− [3, 4]: <0.05 ppm | PO4^−3 [3, 4]: <0.10 ppm | SO4^−2 [3, 4]: 0.18 ppm | Acetate [3, 5]: 0.07 ppm | Br^− [3, 5]: <0.05 ppm | Cl^− [3, 5]: 0.07 ppm | F^− [3, 5]: 0.05 ppm | Formate [3, 5]: 0.14 ppm | NO3^− [3, 5]: 0.10 ppm | PO4^−3 [3, 5]: <0.10 ppm | SO4^−2 [3, 5]: 0.26 ppm | Acetate [3, 6]: 0.09 ppm | Br^− [3, 6]: <0.05 ppm | Cl^− [3, 6]: 0.08 ppm | F^− [3, 6]: 0.06 ppm | Formate [3, 6]: 0.16 ppm | NO3^− [3, 6]: 0.15 ppm | PO4^−3 [3, 6]: <0.10 ppm | SO4^−2 [3, 6]: 0.31 ppm | Acetate [3, 7]: 0.04 ppm | Br^− [3, 7]: <0.05 ppm | Cl^− [3, 7]: 0.07 ppm | F^− [3, 7]: 0.05 ppm | Formate [3, 7]: 0.08 ppm | NO3^− [3, 7]: <0.05 ppm | PO4^−3 [3, 7]: <0.10 ppm | SO4^−2 [3, 7]: 0.19 ppm | Acetate [3, 8]: 0.04 ppm | Br^− [3, 8]: <0.05 ppm | Cl^− [3, 8]: 0.07 ppm | F^− [3, 8]: 0.06 ppm | Formate [3, 8]: 0.08 ppm | NO3^− [3, 8]: <0.05 ppm | PO4^−3 [3, 8]: <0.10 ppm | SO4^−2 [3, 8]: 0.18 ppm | Acetate [3, 9]: 0.08 ppm | Br^− [3, 9]: <0.05 ppm | Cl^− [3, 9]: 0.08 ppm | F^− [3, 9]: 0.05 ppm | Formate [3, 9]: 0.12 ppm | NO3^− [3, 9]: <0.05 ppm | PO4^−3 [3, 9]: <0.10 ppm | SO4^−2 [3, 9]: 0.23 ppm | Acetate [3, 10]: 0.12 ppm | Br^− [3, 10]: <0.05 ppm | Cl^− [3, 10]: 0.14 ppm | F^− [3, 10]: 0.09 ppm | Formate [3, 10]: 0.26 ppm | NO3^− [3, 10]: 0.19 ppm | PO4^−3 [3, 10]: <0.10 ppm | SO4^−2 [3, 10]: 0.45 ppm | Acetate [3, 11]: 0.08 ppm | Br^− [3, 11]: <0.05 ppm | Cl^− [3, 11]: 0.12 ppm | F^− [3, 11]: 0.08 ppm | Formate [3, 11]: 0.17 ppm | NO3^− [3, 11]: 0.06 ppm | PO4^−3 [3, 11]: <0.10 ppm | SO4^−2 [3, 11]: 0.17 ppm | Acetate [3, 12]: 0.12 ppm | Br^− [3, 12]: <0.05 ppm | Cl^− [3, 12]: 0.9 ppm | F^− [3, 12]: 0.09 ppm | Formate [3, 12]: 0.10 ppm | NO3^− [3, 12]: 0.12 ppm | PO4^−3 [3, 12]: <0.10 ppm | SO4^−2 [3, 12]: 0.41 ppm | Acetate [3, 13]: 0.12 ppm | Br^− [3, 13]: <0.05 ppm | Cl^− [3, 13]: 0.12 ppm | F^− [3, 13]: 0.08 ppm | Formate [3, 13]: 0.22 ppm | NO3^− [3, 13]: 0.14 ppm | PO4^−3 [3, 13]: <0.10 ppm | SO4^−2 [3, 13]: 0.30 ppm | Acetate [3, 14]: 0.10 ppm | Br^− [3, 14]: <0.05 ppm | Cl^− [3, 14]: 0.11 ppm | F^− [3, 14]: 0.08 ppm | Formate [3, 14]: 0.12 ppm | NO3^− [3, 14]: 0.06 ppm | PO4^−3 [3, 14]: <0.10 ppm | SO4^−2 [3, 14]: 0.18 ppm | Acetate [3, 15]: 0.13 ppm | Br^− [3, 15]: <0.05 ppm | Cl^− [3, 15]: 0.16 ppm | F^− [3, 15]: 0.09 ppm | Formate [3, 15]: 0.19 ppm | NO3^− [3, 15]: 0.12 ppm | PO4^−3 [3, 15]: <0.10 ppm | SO4^−2 [3, 15]: 0.29 ppm | Acetate [3, 16]: 0.13 ppm | Br^− [3, 16]: <0.05 ppm | Cl^− [3, 16]: 0.11 ppm | F^− [3, 16]: 0.08 ppm | Formate [3, 16]: 0.35 ppm | NO3^− [3, 16]: 0.06 ppm | PO4^−3 [3, 16]: <0.10 ppm | SO4^−2 [3, 16]: 0.21 ppm | breakdown products in solvent after reflux ([3]; reflux with individual metals and added moisture (0.20% H2O), 100 hours): no increase of chlorides and fluorides in the solvent over the baseline and no other degradation products

FC(F)(Cl)C(F)(Cl)Cl [CFC-113, 1,1,2-trichlorotrifluoroethane]
Boiling Point [1]: 47.6 °C | Flash Point [1]: None | Kauri-Butanol value [1]: 32 | Vapor Pressure [1]: 5.27 psi | Heat of Vaporization ([1]; at bp): 144.7 kJ/kg

FC(C(F)C(F)(F)C(F)(F)F)C(F)(F)F (stereo not drawn) [HFC 43-10mee]
Boiling Point [1]: 54 °C | Flash Point [1]: None | Vapor Pressure [1]: 4.4 psi | Heat of Vaporization ([1]; at bp): 129.7 kJ/kg

ClC(Cl)=C(Cl)Cl [Perc, perchloroethylene]
Boiling Point [1]: 121.3 °C | Flash Point [1]: None | Vapor Pressure ([1]; @20 C.): 0.27 psi | Heat of Vaporization ([1]; at bp): 207 kJ/kg

CCCBr [n-Propyl Bromide, n-propyl bromide, reference compound]
Boiling Point [1]: 71 °C | Flash Point [1]: None | Vapor Pressure ([1]; @20 C.): 2.1 psi | Heat of Vaporization ([1]; at bp): 246 kJ/kg | Soil Dissolution in solvent ([2]; Mineral Oil): Miscible | Soil Dissolution in solvent ([2]; Refrigerant oil): Miscible | Soil Dissolution in solvent ([2]; Silicone Lubricant): Miscible | Soil Dissolution in solvent ([2]; Solder Flux): Miscible

O [water]
surface tension [1]: 72.1 dynes/cm

dichloropentafluoropropane [HCFC-225]
Boiling Point [1]: 54 °C | Flash Point [1]: None | Vapor Pressure ([1]; @20 C.): 5.6 psi | Heat of Vaporization ([1]; @25° C.): 145@25 °C kJ/kg
